Like-named read-outs stand apart in the source and are kept apart here.
Tests used:
[1] = HDPE; 190° C. (21.6 Kg); phosphite 900 ppm
Description: (§1) The polyolefin powder (polyethylene, polypropylene or high density polyethylene) is dry blended with the stabilizer formulation using a Waring blender. […] The masterbatch is then added to a preheated co-rotating twin screw extruder where the plastic is homogeneously mixed. Extrusion is typically performed at 260° C. for polyethylene (LLDPE) and polypropylene (PP) and at 250° C. for high density polyethylene (HDPE). The extruded plastic is cooled into a cold water bath, completely dried, and pelletized. The collected polymer pellets are the result of the first pass extrusion and are the starting material for all subsequent test protocols. The isolated pellets are added to the extruder repeatedly to generate the third and fifth pass material.
(§2) The melt flow rate was performed using the ASTM 1238-90b test method measured at 21.6 Kg/190° C. for LLDPE and HDPE compositions and at 2.16 Kg/230° C. for the PP compositions. The melt flow rate was complete on a Tinius Olsen extrusion plastometer.

[2] = PP; 230° C. (21.6 Kg); phosphite 900 ppm
Description: as §1, §2

[3] = LLDPE; 900 ppm phosphite + 500 ppm Dovernox 76
Description: as §1
(§3) Color analysis was performed on compression molded films or plaques with a Hunter Lab Ulstrascan XE machine. Observations were made with a D65 illuminant and 10° observer. Yellowness Index measurements were made in accord with ASTM D1925-70.

[4] = HDPE; 230° C.; phosphite 900 ppm
Description: as §1, §3

[5] = PP; phosphite 900 ppm
Description: as §1, §3

[6] = LLDPE; for High load Melt Flow Stability, 1st pass / High load Melt Flow Stability, 3rd pass / High load Melt Flow Stability, 5th pass: 190° C. (21.6 Kg), 900 ppm phosphite + 500 ppm Dovernox 76; for maintaining melt flow stability, in words: compared with TNPP (Table III)
Description: as §1, §2

[7] = test system: estrogenic activity; experiment: Estrogenic activity by in-vivo testing

Molecule	High load Melt Flow Stability, 1st pass [1]	High load Melt Flow Stability, 3rd pass [1]	High load Melt Flow Stability, 5th pass [1]	High load Melt Flow Stability, 1st pass [2]	High load Melt Flow Stability, 3rd pass [2]	High load Melt Flow Stability, 5th pass [2]	YI (Yellowness Index) Color Stability, 1st pass [3]	YI (Yellowness Index) Color Stability, 3rd pass [3]	YI (Yellowness Index) Color Stability, 5th pass [3]	Color Stability (YI), 1st pass [4]	Color Stability (YI), 3rd pass [4]	Color Stability (YI), 5th pass [4]	Color Stability (YI), 1st pass [5]	Color Stability (YI), 3rd pass [5]	High load Melt Flow Stability, 1st pass [6]	High load Melt Flow Stability, 3rd pass [6]	High load Melt Flow Stability, 5th pass [6]	maintaining melt flow stability, in words [6]	estrogenic activity compared with nonylphenol [7]
tris(nonylphenyl)phosphite [TNPP, reference compound]	22.7	22.5	18.5	21.4	30.0	37.0	−3.7	−1.7	0.4	−0.4	4.9	9.3	14.8	15.1	18.1	16.1	14.4	–	–
Mixed C12-14 alkyl, p-cumylphenyl phosphite [Example 2]	22.7	22.2	17.2	24.2	33.7	37.9	−5.4	−3.5	−1.5	1.2	5.9	10.2	7.2	10.4	17.7	15.7	14.0	performed exceptionally well	–
Mixed C10 alkyl, p-cumylphenyl phosphite [Example 3]	–	–	–	–	–	–	−4.2	−2.9	−1.1	–	–	–	–	–	17.1	13.4	12.2	–	–
Mixed C16-18 alkyl, p-cumylphenyl phosphite [Example 6]	–	–	–	–	–	–	−3.8	−1.1	1.5	–	–	–	–	–	18.7	15.7	13.6	–	–
Mixed C12-18 alkyl, p-cumylphenyl phosphite [Example 7]	23.6	22.2	17.1	24.2	34.2	44.4	−5.5	−3.6	−1.5	−0.6	1.4	6.4	7.0	10.0	18.5	16.1	14.6	performed exceptionally well	–
Mixed C12-14 Alkyl, 2,4-dicumylphenyl Phosphite [Example 10]	–	–	–	–	–	–	−6.1	−3.8	−2.4	–	–	–	–	–	18.3	15.5	13.5	–	–
Mixed C18 alkenyl, p-cumylphenyl phosphite [Example 4]	–	–	–	–	–	–	−5.8	−3.8	−1.4	–	–	–	–	–	18.1	14.8	13.4	–	–
CC(C)(c1ccccc1)c1ccc(O)cc1 [para-cumylphenol]	–	–	–	–	–	–	–	–	–	–	–	–	–	–	–	–	–	–	does not show comparable estrogenic activity to nonylphenol
